The values below come from patent publication US10787450B2 (BRISTOL-MYERS SQUIBB COMPANY, priority 2016, dated 2020).

Bounds are passed on as bounds.

ROCK2, sequence (O75116 whole entry, species assumed): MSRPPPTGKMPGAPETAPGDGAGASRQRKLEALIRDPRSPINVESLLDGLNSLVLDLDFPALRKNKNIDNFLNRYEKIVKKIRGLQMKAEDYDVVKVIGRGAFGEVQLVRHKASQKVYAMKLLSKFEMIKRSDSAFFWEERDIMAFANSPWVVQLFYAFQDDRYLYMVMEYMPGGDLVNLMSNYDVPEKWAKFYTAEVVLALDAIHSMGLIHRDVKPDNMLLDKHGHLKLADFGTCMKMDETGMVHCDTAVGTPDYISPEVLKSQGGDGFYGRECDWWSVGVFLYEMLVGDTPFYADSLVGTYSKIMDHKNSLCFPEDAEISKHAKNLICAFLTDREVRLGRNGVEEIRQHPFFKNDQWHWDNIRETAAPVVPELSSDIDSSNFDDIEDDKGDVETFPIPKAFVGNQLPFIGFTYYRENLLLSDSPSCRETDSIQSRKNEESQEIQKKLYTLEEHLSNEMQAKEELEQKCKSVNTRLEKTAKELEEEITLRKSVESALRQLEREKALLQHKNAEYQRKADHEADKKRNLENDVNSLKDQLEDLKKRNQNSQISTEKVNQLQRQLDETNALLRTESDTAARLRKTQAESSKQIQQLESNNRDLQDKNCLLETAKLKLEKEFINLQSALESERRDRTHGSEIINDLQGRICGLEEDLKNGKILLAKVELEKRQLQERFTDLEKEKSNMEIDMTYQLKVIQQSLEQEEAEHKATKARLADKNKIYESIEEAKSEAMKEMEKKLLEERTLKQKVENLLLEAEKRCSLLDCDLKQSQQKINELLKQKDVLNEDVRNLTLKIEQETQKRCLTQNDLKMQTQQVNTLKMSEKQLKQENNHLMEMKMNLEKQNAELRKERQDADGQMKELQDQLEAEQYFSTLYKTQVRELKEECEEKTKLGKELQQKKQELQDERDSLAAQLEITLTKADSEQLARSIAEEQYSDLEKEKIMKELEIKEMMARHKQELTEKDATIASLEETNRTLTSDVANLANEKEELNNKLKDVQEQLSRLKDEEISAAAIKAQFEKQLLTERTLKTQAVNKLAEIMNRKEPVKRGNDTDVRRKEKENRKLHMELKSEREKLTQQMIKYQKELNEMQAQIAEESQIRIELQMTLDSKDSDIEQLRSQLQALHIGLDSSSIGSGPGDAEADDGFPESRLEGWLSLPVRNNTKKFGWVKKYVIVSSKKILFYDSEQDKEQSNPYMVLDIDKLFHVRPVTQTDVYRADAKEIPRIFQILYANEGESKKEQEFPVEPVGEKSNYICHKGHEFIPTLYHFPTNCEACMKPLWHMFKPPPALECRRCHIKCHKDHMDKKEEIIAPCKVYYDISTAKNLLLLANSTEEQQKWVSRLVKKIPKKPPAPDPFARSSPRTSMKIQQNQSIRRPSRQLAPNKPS

The test addresses ROCK2 (Homo sapiens (Human), UniProt O75116). The experiment in a line: ROCK2 kinase inhibition assay (FITC peptide substrate, LABCHIP 3000 Reader). It is filed as biochemical. The note with it: 5 μM ATP, 1.5 μM peptide substrate. Summed up:
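Reaction in 20 mM HEPES pH 7.5, 20 mM MgCl2, 0.015% Brij-35, 4 mM DTT with 5 μM ATP and 1.5 μM FITC-AHA-AKRRRLSSLRA-OH peptide, started with Rho kinase, DMSO <2%. EDTA-stopped; phospho and non-phospho peptide separated by mobility shift. IC50 from dose-response curve fit.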
As to `N#Cc1cccc(CN2C(=O)N(c3ccc(-c4cn[nH]c4)cc3)CC23CCOCC3)c1` [Example 14, 3-((3-(4-(1H-pyrazol-4-yl)phenyl)-2-oxo-8-oxa-1,3-diazaspiro[4.5]decan-1-yl)methyl)benzonitrile], the IC50 was 30 to 250 nM.

`COc1cccc(CN2C(=O)N(c3ccc(-c4cn[nH]c4)cc3)CC23CCN(C(=O)c2ccc4cc[nH]c4c2)CC3)c1` [Example 179, 3-(4-(1H-pyrazol-4-yl)phenyl)-8-(1H-indole-6-carbonyl)-1-(3-methoxybenzyl)-1,3,8-triazaspiro[4.5]decan-2-one] returned an IC50 of 3 to 30 nM.

The compound `COc1cccc(CN2C(=O)N(c3ncc(-c4cn[nH]c4)c(OC)n3)CC23CCN(C(=O)C2CC(F)(F)C2)CC3)c1` [Example 209, 8-(3,3-difluorocyclo-butanecarbonyl)-3-(4-methoxy-5-(1H-pyrazol-4-yl)pyrimidin-2-yl)-1-(3-methoxybenzyl)-1,3,8-triazaspiro[4.5]decan-2-one] returned an IC50 of 3 to 30 nM.

Take `O=C1N(c2ccc(-c3cn[nH]c3)cc2)CC2(CCOCC2)N1Cc1cccc(OC(F)(F)F)c1` [Example 20, 3-(4-(1H-pyrazol-4-yl)phenyl)-1-(3-(trifluoromethoxy)benzyl)-8-oxa-1,3-diazaspiro[4.5]decan-2-one]: the IC50 lay within 30 to 250 nM.

As for `COc1cccc(CN2C(=O)N(c3ccc(-c4cn[nH]c4)c(OC)n3)CC23CCN(C2COC2)CC3)c1` [Example 238, 3-(6-methoxy-5-(1H-pyrazol-4-yl)pyridin-2-yl)-1-(3-methoxy-benzyl)-8-(oxetan-3-yl)-1,3,8-triazaspiro [4.5]decan-2-one], the IC50 is less than 3 nM.

With `CC(=O)N1CCC2(CC1)CN(c1ccc(-c3cn[nH]c3)cc1)C(=O)N2Cc1ccc(F)cc1C` [Example 80, 3-(4-(1H-pyrazol-4-yl)phenyl)-8-acetyl-1-(4-fluoro-2-methylbenzyl)-1,3,8-triazaspiro[4.5]decan-2-one], the 50% inhibitory concentration (IC50) was in the range of 3 to 30 nM.

In the case of `CNC(=O)c1cccc(CN2C(=O)N(c3ccc(-c4cn[nH]c4)cc3)CC23CCOCC3)c1` [Example 31, 3-((3-(4-(1H-pyrazol-4-yl)phenyl)-2-oxo-8-oxa-1,3-diazaspiro[4.5]decan-1-yl)methyl)-N-methylbenzamide], the IC50 was 30 to 250 nM.

As to `COc1cc(F)cc(CN2C(=O)N(c3ccc(-c4cn[nH]c4)cc3)CC23CCN(CC(F)F)CC3)c1` [Example 132, 3-(4-(1H-pyrazol-4-yl)phenyl)-8-(2,2-difluoroethyl)-1-(3-fluoro-5-methoxybenzyl)-1,3,8-triazaspiro[4.5]decan-2-one], the IC50 is less than 3 nM.

Consider `O=C(c1cccc(CN2C(=O)N(c3ccc(-c4cn[nH]c4)cc3)CC23CCOCC3)c1)N1CC(F)C1` [Example 43, 3-(4-(1H-pyrazol-4-yl)phenyl)-1-(3-(3-fluoroazetidine-1-carbonyl)benzyl)-8-oxa-1,3-diazaspiro[4.5]decan-2-one], for which the IC50 lay in the range of 250 to 3000 nM.

As for `CN(C)C(=O)c1cccc(CN2C(=O)N(c3ccc(-c4cn[nH]c4)cc3)CC23CCOCC3)c1` [Example 42, 3-((3-(4-(1H-pyrazol-4-yl)phenyl)-2-oxo-8-oxa-1,3-diazaspiro[4.5]decan-1-yl)methyl)-N,N-dimethylbenzamide], the IC50 was 30 to 250 nM.

For `COc1cccc(CN2C(=O)N(c3ccc(-c4cn[nH]c4)cn3)CC23CCN(C(=O)C(F)F)CC3)c1` [Example 194, 3-(5-(1H-pyrazol-4-yl)pyridin-2-yl)-8-(2,2-difluoroacetyl)-1-(3-methoxybenzyl)-1,3,8-triazaspiro[4.5]decan-2-one], the IC50 is 3 to 30 nM.

`CCc1nc(N2CC3(CCN(C(=O)C4COC4)CC3)N(Cc3cccc(F)c3C)C2=O)ccc1-c1cn[nH]c1` [Example 182, 3-(6-ethyl-5-(1H-pyrazol-4-yl)pyridin-2-yl)-1-(3-fluoro-2-methylbenzyl)-8-(oxetane-3-carbonyl)-1,3,8-triazaspiro[4.5]decan-2-one] had an IC50 of less than 3 nM.

For `CCc1nc(N2CC3(CCN(CC(C)O)CC3)N(Cc3cc(F)cc(OC)c3)C2=O)ccc1-c1cn[nH]c1` (stereo not shown) [Example 154, 3-(6-ethyl-5-(1H-pyrazol-4-yl)pyridin-2-yl)-1-(3-fluoro-5-methoxybenzyl)-8-(2-hydroxypropyl)-1,3,8-triazaspiro[4.5]decan-2-one], the IC50 is less than 3 nM.

`COc1cccc(CN2C(=O)N(c3ccc(-c4cn[nH]c4)cc3)CC23CCN(CC(O)CO)CC3)c1` (stereo not shown) [Example 120, 3-(4-(1H-pyrazol-4-yl)phenyl)-8-(2,3-dihydroxypropyl)-1-(3-methoxybenzyl)-1,3,8-triazaspiro[4.5]decan-2-one] yielded an IC50 of less than 3 nM.

With `COc1cccc(CN2C(=O)N(c3ccc(-c4cn[nH]c4)cc3)CC23CCN(CCc2ccccc2)CC3)c1` [Example 125, 3-(4-(1H-pyrazol-4-yl)phenyl)-1-(3-methoxybenzyl)-8-phenethyl-1,3,8-triazaspiro[4.5]decan-2-one], the IC50 lay within 3 to 30 nM.

On to `O=C1N(c2ccc(-c3cn[nH]c3)cc2)CC2(CCNCC2)N1Cc1cccc(F)c1F` [Example 64], for which the IC50 lay in the range of 3 to 30 nM.

`CCc1nc(N2CC3(CCN(CC(C)(C)O)CC3)N(Cc3cc(F)cc(OC)c3)C2=O)ccc1-c1cn[nH]c1` [Example 155, 3-(6-ethyl-5-(1H-pyrazol-4-yl)pyridin-2-yl)-1-(3-fluoro-5-methoxybenzyl)-8-(2-hydroxy-2-methylpropyl)-1,3,8-triazaspiro[4.5]decan-2-one] yielded an IC50 of less than 3 nM.

The compound `O=C1N(c2ccc(-c3cn[nH]c3)cc2)CC2(CCNCC2)N1CC1CCOCC1` [Example 72, 3-(4-(1H-pyrazol-4-yl)phenyl)-1-((tetrahydro-2H-pyran-4-yl)methyl)-1,3,8-triazaspiro[4.5] decan-2-one] showed an IC50 of 250 to 3000 nM.

As to `COc1cccc(CN2C(=O)N(c3ccc(-c4cn[nH]c4)cc3)CC23CCN(C(=O)C2CCC2)CC3)c1` [Example 172, 3-(4-(1H-pyrazol-4-yl)phenyl)-8-(cyclobutanecarbonyl)-1-(3-methoxybenzyl)-1,3,8-triazaspiro[4.5]decan-2-one], the IC50 is less than 3 nM.

In the case of `COc1cccc(CN2C(=O)N(c3ccc(-c4cn[nH]c4)cc3)CC23CCOCC3)c1` [Example 9, 3-(4-(1H-pyrazol-4-yl)phenyl)-1-(3-methoxybenzyl)-8-oxa-1,3-diazaspiro[4.5]decan-2-one], the IC50 was less than 3 nM.

`CCc1nc(N2CC3(CCN(C(=O)OC(C)(C)C)CC3)N(Cc3cccc(OC)c3)C2=O)ccc1-c1cn[nH]c1` [Example 53, tert-butyl 3-(6-ethyl-5-(1H-pyrazol-4-yl)pyridin-2-yl)-1-(3-methoxybenzyl)-2-oxo-1,3,8-triazaspiro[4.5]decane-8-carboxylate] had an IC50 of 30 to 250 nM.

`COc1cc(F)cc(CN2C(=O)N(c3ccc(-c4cn[nH]c4)cc3)CC23CC3)c1` [Example 8, 6-(4-(1H-pyrazol-4-yl)phenyl)-4-(3-fluoro-5-methoxybenzyl)-4,6-diazaspiro[2.4]heptan-5-one] had an IC50 of less than 3 nM.

Compound `CC(=O)N1CCC2(CC1)CN(c1ccc(-c3cn[nH]c3)cc1)C(=O)N2Cc1ccc(F)cc1F` [Example 81, 3-(4-(1H-pyrazol-4-yl)phenyl)-8-acetyl-1-(2,4-difluorobenzyl)-1,3,8-triazaspiro[4.5]decan-2-one] gave an IC50 of 30 to 250 nM.

The compound `COc1cccc(CN2C(=O)N(c3ccc(-c4cn[nH]c4)cc3)CC23CCN(C(=O)OCC(C)C)CC3)c1` [Example 95, isobutyl 3-(4-(1H-pyrazol-4-yl)phenyl)-1-(3-methoxybenzyl)-2-oxo-1,3,8-triazaspiro[4.5]decane-8-carboxylate] returned an IC50 of less than 3 nM.

Compound `COc1cccc(NC2C(=O)N(c3ccc(-c4cn[nH]c4)cn3)CC23CCN(C(=O)CCc2nnc(-c4ccccc4)o2)CC3)c1` (stereo not shown) [Example 258, 2-(5-(1H-pyrazol-4-yl)pyridin-2-yl)-4-((3-methoxy-phenyl)amino)-8-(3-(5-phenyl-1,3,4-oxadiazol-2-yl)pro-panoyl)-2,8-diazaspiro [4.5]decan-3-one] showed a half-maximal inhibitory concentration (IC50) of 30 to 250 nM.

Compound `O=C1N(c2ccc(-c3cn[nH]c3)cc2)CC2(CCNCC2)N1Cc1cccc(OC(F)F)c1` [Example 61, 3-(4-(1H-pyrazol-4-yl)phenyl)-1-(3-(difluoromethoxy)benzyl)-1,3,8-triazaspiro[4.5]decan-2-one] registered an IC50 of 3 to 30 nM.

`CCc1nc(N2CC3(CCN(C(=O)CO)CC3)N(Cc3cc(F)cc(OC)c3)C2=O)ccc1-c1cn[nH]c1` [Example 186, 3-(6-ethyl-5-(1H-pyrazol-4-yl)pyridin-2-yl)-1-(3-fluoro-5-methoxybenzyl)-8-(2-hydroxyacetyl)-1,3,8-triazaspiro[4.5]decan-2-one] displayed an IC50 of less than 3 nM.

`CCc1nc(N2CC3(CCN(C(=O)C(C)(C)CO)CC3)N(Cc3cccc(OC)c3)C2=O)ccc1-c1cn[nH]c1` [Example 204, 3-(6-ethyl-5-(1H-pyrazol-4-yl)pyridin-2-yl)-8-(3-hydroxy-2,2-dimethylpropanoyl)-1-(3-methoxybenzyl)-1,3,8-triazaspiro[4.5]decan-2-one] showed an IC50 of less than 3 nM.

In the case of `COc1cccc(CN2C(=O)N(c3ccc(-c4cn[nH]c4)cc3)CC23CCN(CC(C)O)CC3)c1` (single isomer, unassigned) [Example 139, 3-(4-(1H-pyrazol-4-yl)phenyl)-8-(2-hydroxypropyl)-1-(3-methoxybenzyl)-1,3,8-triazaspiro[4.5]decan-2-one], the IC50 was less than 3 nM.

Compound `COc1cccc(CN2C(=O)N(c3ccc(-c4cn[nH]c4)cc3)CC23CCN(C(=O)OCC(C)(C)C)CC3)c1` [Example 97, neopentyl 3-(4-(1H-pyrazol-4-yl)phenyl)-1-(3-methoxybenzy1)-2-oxo-1,3,8-triazaspiro[4.5]decane-8-carboxylate] returned an IC50 of 3 to 30 nM.

For the compound `COc1cccc(CN2C(=O)N(c3ccc(-c4cn[nH]c4)cn3)CC23CCNCC3)c1` [Example 73, 3-(5-(1H-pyrazol-4-yl)pyridin-2-yl)-1-(3-methoxybenzyl)-1,3,8-triazaspiro[4.5]decan-2-one], the IC50 is 3 to 30 nM.
